The values below come from PubChem BioAssay (NCI).

Several values for one entry are separate records, joined by “and”; a condition that tells them apart may be missing. Equal entries are not always repeated.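 Protocol summary: plate cells (96-well), add compound at 5 concentrations, incubate 48 h, interpolate endpoints linearly. The concentration for 50% growth inhibition is given as GI50. TGI denotes the concentration required for complete inhibition of growth.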 Starred links: 1 amine or outer side, 2 acyl side, 3 side chain; linkers in the order of their positions; H or OH if unused. Positions of bridges follow the written chain, without caps; N, C: chain ends. Non-standard residues stand in square brackets, D forms with d. Residues, ends and D or L forms follow the SMILES beside them. Chains are numbered I, II in the order given. Actinocin(1to9) = Cc1c2oc3c(C)ccc(C(=O)[*:2])c3nc-2c(C(=O)[*:1])c(N)c1=O; NMeV = CN[CH](C(=O)O)C(C)C; Sar = CNCC(=O)O

Some test systems named below: MDA-N; COLO 205 colon; SW-620 colon; 786-0 renal; MDA-MB-231 breast; HCT-116 colon; ACHN renal; DMS 114 small cell lung; SNB-78 CNS; DLD-1 colon; KM20L2 colon; DMS 273 small cell lung; HOP-18 NSCLC; XF 498 CNS; LXFL 529 NSCLC.
Common to all, as to assay: NCI tumour cell line growth inhibition, 48 h

Consider `O=C(CSc1nc2ccc([N+](=O)[O-])cc2s1)c1ccc2ccccc2c1`, for which the TGI with MDA-N, with COLO 205 colon, in the experiment on SW-620 colon, with 786-0 renal, with MDA-MB-231 breast and with HCT-116 colon was > 100 µM each time. The TGI with ACHN renal is > 100 µM.
As to `Nc1ncnc2c1sc1nc3ccccc3n12`, the TGI in the experiment with COLO 205 colon, with SW-620 colon, in the experiment on MDA-MB-231 breast and with ACHN renal was > 100 µM throughout.
`CCC(C)C1NC(=O)C(NC(=O)c2c3nc4c(C(=O)NC5C(=O)NC(C(C)CC)C(=O)N6CCCC6C(=O)N(C)CC(=O)N(C)C(C(C)C)C(=O)OC5C)ccc(C)c4oc-3c(C)c(=O)c2N)C(C)OC(=O)C(C(C)C)N(C)C(=O)CN(C)C(=O)C2CCCN2C1=O` (stereo not drawn) (I: TIP[Sar][NMeV] / II: TIP[Sar][NMeV]; ester I:1-I:C, II:1-II:C; linker I:N-II:N via Actinocin(1to9); configuration not given here): the TGI was 0.00309 µM in the experiment with COLO 205 colon; 0.0776 µM in the experiment with SW-620 colon; 10.4 µM with 786-0 renal; 0.156 µM and 0.481 µM in the experiment on MDA-MB-231 breast.
On to `CC(C)(C)OC(=O)NC(CCCCNC(=O)OCc1ccccc1)C(=O)NCCNc1ccc(NCCNC(=O)C(CCCCNC(=O)OCc2ccccc2)NC(=O)OC(C)(C)C)c2c1C(=O)c1ccccc1C2=O` (stereo not drawn), for which the TGI with MDA-N was > 100 µM; in the experiment on COLO 205 colon it was > 100 µM; with SW-620 colon, > 100 µM; with 786-0 renal it was > 100 µM; in the experiment on MDA-MB-231 breast, 38.2 µM; in the experiment on HCT-116 colon it was > 75.1 µM. The TGI with ACHN renal was > 100 µM.
With `Cn1c(=O)[nH]c2nncnc2c1=O`, the TGI was 345 µM in the experiment on DMS 114 small cell lung; > 625 µM in the experiment on SNB-78 CNS; > 625 µM with DLD-1 colon; > 306 µM in the experiment with KM20L2 colon; 501 µM in the experiment on COLO 205 colon; 106 µM in the experiment on DMS 273 small cell lung. Further, the TGI with SW-620 colon is > 625 µM; in the experiment on HOP-18 NSCLC it was 61.1 µM; in the experiment on XF 498 CNS, 245 µM; in the experiment with HCT-116 colon, 219 µM.
Regarding `O=c1[nH]c(Nc2ccc(Cl)c(C(F)(F)F)c2)nc2nc[nH]c12`, the TGI is > 100 µM with MDA-N; > 100 µM with COLO 205 colon; > 100 µM in the experiment on SW-620 colon; 74.8 µM in the experiment on 786-0 renal; > 100 µM with MDA-MB-231 breast; > 100 µM in the experiment with HCT-116 colon. In the experiment with ACHN renal, the TGI is > 100 µM.
For `Cc1ccccc1N=Nc1c(O)c(S(=O)(=O)O)cc2cc(S(=O)(=O)O)ccc12`, the TGI in the experiment on MDA-N, in the experiment on COLO 205 colon, in the experiment on SW-620 colon, with 786-0 renal, with MDA-MB-231 breast and in the experiment with HCT-116 colon was > 100 µM throughout. Also, in the experiment with ACHN renal, the TGI is > 100 µM.
`COc1ccc(C(=O)C2=NON3OC23C(=O)c2ccc(OC)cc2)cc1` (stereo not drawn): the TGI with DMS 114 small cell lung turned out to be 11.1 µM; in the experiment on SNB-78 CNS it was 42.3 µM; in the experiment with DLD-1 colon, 21.5 µM; with KM20L2 colon it was 35.5 µM; with COLO 205 colon, 21.7 µM; with LXFL 529 NSCLC it was 6.68 µM. Moreover, the TGI with DMS 273 small cell lung was determined as 36.4 µM; with SW-620 colon, 11.4 µM; in the experiment on HOP-18 NSCLC, 33.7 µM; with XF 498 CNS, 23.9 µM; in the experiment with 786-0 renal, 10.6 µM; in the experiment with HCT-116 colon, 19.6 µM. In the experiment on ACHN renal, the TGI was 31.3 µM.
In the case of `COCC1CCCN1c1ccc(C=N/C(C#N)=C(\N)C#N)cc1` (stereo not drawn), the GI50 is > 100 µM in the experiment on COLO 205 colon, > 100 µM in the experiment with SW-620 colon, 18.7 µM in the experiment on MDA-MB-231 breast and 9.19 µM in the experiment on HCT-116 colon. Also, the TGI in the experiment with COLO 205 colon, in the experiment on SW-620 colon, in the experiment on MDA-MB-231 breast and with HCT-116 colon was > 100 µM in each case.
Consider `OCc1cn(C(c2ccccc2)(c2ccccc2)c2ccccc2)cn1`, for which the TGI with MDA-N, in the experiment with COLO 205 colon, in the experiment on SW-620 colon, with MDA-MB-231 breast, with HCT-116 colon and in the experiment with ACHN renal was > 100 µM throughout.
`COc1ccc2nc3c(C(=O)NCCN(C)C)cccc3cc2c1`: the TGI is 4.48 µM with DMS 114 small cell lung; 18.3 µM in the experiment with SNB-78 CNS; 4.36 µM with KM20L2 colon; 3.74 µM in the experiment on COLO 205 colon; 6.15 µM in the experiment on DMS 273 small cell lung; 5.1 µM in the experiment on SW-620 colon. The TGI is > 100 µM in the experiment with HOP-18 NSCLC, 4.01 µM in the experiment with XF 498 CNS and 9.27 µM with HCT-116 colon.
On to `COc1nc2[nH]ccc2c(=O)[nH]1`, for which the TGI in the experiment on DMS 114 small cell lung, in the experiment on SNB-78 CNS, in the experiment on DLD-1 colon, with KM20L2 colon, in the experiment with COLO 205 colon and in the experiment on LXFL 529 NSCLC was > 100 µM each time. The TGI with SW-620 colon, in the experiment on HOP-18 NSCLC, in the experiment on HCT-116 colon and in the experiment on ACHN renal was > 100 µM each time.
As to `CC(C)(C)OC(=O)n1c2ccccc2c2c(=O)nc(N3CCCCC3)sc21`, the TGI in the experiment with MDA-N, with COLO 205 colon, in the experiment with SW-620 colon, in the experiment on 786-0 renal, in the experiment with MDA-MB-231 breast and with ACHN renal was > 100 µM throughout.
Consider `Nc1c(C(=O)O)nnc2cc(Cl)c(Cl)cc12`, for which the TGI with MDA-N, with COLO 205 colon, with SW-620 colon, in the experiment on 786-0 renal, in the experiment on MDA-MB-231 breast and in the experiment with HCT-116 colon was > 100 µM each time. In addition, the TGI in the experiment with ACHN renal is > 100 µM.
As for `COc1cc2oc(=O)ccc2cc1C(=O)CC(C)C`, the TGI in the experiment on MDA-N, with COLO 205 colon, in the experiment on SW-620 colon, with 786-0 renal, with MDA-MB-231 breast and with HCT-116 colon was > 100 µM each time. Moreover, the TGI in the experiment with ACHN renal was > 100 µM.
Turning to `CC(=O)OC1CC[C@@]2(C)C(=CC[C@@H]3[C@@H]2CC[C@]2(C)Nc4nn(S(C)(=O)=O)cc4C[C@@H]32)C1` (stereo partly drawn), the TGI in the experiment with MDA-N is 74.5 µM; in the experiment with COLO 205 colon, > 100 µM; in the experiment with MDA-MB-231 breast, > 100 µM.
As for `N#CC12Cc3cc4c(cc3-c3cccc(c31)CCN2C(=O)c1ccccc1)OCO4` (stereo not drawn), the TGI with DMS 114 small cell lung, in the experiment with SNB-78 CNS, in the experiment on DLD-1 colon, in the experiment with KM20L2 colon, with COLO 205 colon and in the experiment on LXFL 529 NSCLC was > 100 µM each time. Moreover, the TGI in the experiment on DMS 273 small cell lung, with SW-620 colon, with HOP-18 NSCLC, in the experiment with XF 498 CNS, in the experiment on HCT-116 colon and with ACHN renal was > 100 µM each time.
Consider `C[N+]1(CCC(=O)c2ccco2)CC2CCC(CC2)C1` (stereo not drawn), for which the TGI with MDA-N, with COLO 205 colon, with SW-620 colon, with 786-0 renal, in the experiment with MDA-MB-231 breast and in the experiment with HCT-116 colon was > 100 µM in each case. In addition, the TGI in the experiment with ACHN renal was > 100 µM.
Regarding `O=c1ccc2nc3cc(Br)ccc3sc-2c1`, the TGI with DMS 114 small cell lung, in the experiment on SNB-78 CNS, with DLD-1 colon, in the experiment on KM20L2 colon, with COLO 205 colon and with LXFL 529 NSCLC was > 100 µM each time. The TGI in the experiment on DMS 273 small cell lung, in the experiment on SW-620 colon, in the experiment on HCT-116 colon and with ACHN renal was > 100 µM each time.
With `O=C(O)c1ccc(C(=O)c2ccccc2C(=O)O)cc1C(=O)O`, the TGI in the experiment on MDA-N, in the experiment on COLO 205 colon, in the experiment on SW-620 colon, in the experiment on 786-0 renal, in the experiment with MDA-MB-231 breast and in the experiment with HCT-116 colon was > 100 µM in each case. The TGI in the experiment on ACHN renal is > 100 µM.
For `COCCNCc1ccc(-c2cc3nccc(Oc4ccc(NC(=S)NC(=O)Cc5ccc(F)cc5)cc4F)c3s2)nc1`, the GI50 in the experiment with COLO 205 colon is 2.02 µM; in the experiment with MDA-MB-231 breast, 1.97 µM; in the experiment on ACHN renal it was 1.97 µM. In addition, the TGI in the experiment with COLO 205 colon worked out at 4.3 µM; in the experiment with MDA-MB-231 breast it was 4.1 µM; in the experiment on ACHN renal, 4.54 µM.
With `CN(C)c1ccc(C=Nc2ccc(Oc3ccc(Cl)cc3)c(Cl)c2)cc1`, the TGI in the experiment on MDA-N is 52.8 µM; with COLO 205 colon it was 45.2 µM; in the experiment on SW-620 colon, > 100 µM; in the experiment on MDA-MB-231 breast, 38.5 µM; in the experiment with HCT-116 colon, 34.5 µM; with ACHN renal, 79.6 µM.
